# Results as given in paper PMC6211292 (Journal of the American Chemical Society, 2018).
# What was measured:
# [1] = molecular target: T1, PtmO5 (Streptomyces platensis, UniProt D8L2V0); test: type I difference spectra titration, nonlinear regression of A390-A422; format: binding; details: 0-5 μM ligand; type I shift 422 to 390 nm; heme site
# T1 sequence (D8L2V0 1-430): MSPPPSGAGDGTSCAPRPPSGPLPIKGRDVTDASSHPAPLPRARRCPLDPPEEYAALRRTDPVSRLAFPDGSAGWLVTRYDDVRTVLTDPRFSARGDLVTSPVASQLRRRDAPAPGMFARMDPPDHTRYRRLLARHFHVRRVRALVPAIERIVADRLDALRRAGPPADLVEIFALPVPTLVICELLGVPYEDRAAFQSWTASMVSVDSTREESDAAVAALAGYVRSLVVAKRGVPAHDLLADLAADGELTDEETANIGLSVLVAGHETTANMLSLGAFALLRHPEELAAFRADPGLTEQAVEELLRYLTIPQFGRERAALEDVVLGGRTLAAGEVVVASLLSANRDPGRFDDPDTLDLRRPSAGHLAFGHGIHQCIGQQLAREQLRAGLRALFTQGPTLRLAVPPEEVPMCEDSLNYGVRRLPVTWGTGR
# [2] = molecular target: T1, PtmO5; test: type I binding spectra; details: heme site, poor solubility of 4
Structure (SMILES),Kd [1] [nM],Kd [2] [nM]
"C[C@@]12CCC[C@@](C)(C(=O)O)[C@H]1CC[C@@]13C[C@@H](CC[C@H]12)[C@](C)(O)C3 [compound 1, (16R)-hydroxy-ent-kauran-19-oic acid]",860 ± 70,
"C=C1C[C@@]23CC[C@H]4[C@@](C)(CCC[C@@]4(C)C(=O)O)[C@@H]2CC[C@@H]1C3 [compound 4, ent-kaur-16-en-19-oic acid]",,750 ± 190
